According to patent US10865191B2, “Heterocyclic compounds useful as modulators of TNF alpha” (BRISTOL-MYERS SQUIBB COMPANY, priority 2015, dated 2020):
Like-named read-outs stand apart in the source and are kept apart here.

Biological target: TNFα (Homo sapiens, UniProt P01375)
Assay: TNF induced HEK-Blue assay (NF-kB-driven secreted alkaline phosphatase reporter)
Assay type: cell-based
Details: TNFα 0.5 ng/mL, HEK-Blue-CD40L cells, 18 h
Experimental: TNF or CD40L-Induced HEK-Blue Assay
Test compounds serially diluted in DMSO were plated in an assay plate (LABCYTE, Cat. # LP-0200) at final concentrations ranging from 0.004 μM to 25 μM. TNFα (final concentration 0.5 ng/mL) or CD40L (final concentration 30 ng/mL) in assay buffer [DMEM, 4.5 g/l glucose (Gibco, Cat. 21063-029), 10% FBS (Sigma, F4135), 1% Penicillin-Streptomycin (Gibco, Cat. 15140-122), 1% Anti-Anti (Gibco, Cat. 15240-112) and 2 mM L-glutamine (Gibco, Cat. 25030-081)] was then added to the assay plate. After a 30 minute pre-incubation at 37° C. and 5% CO2, HEK-Blue™-CD40L cells (INVIVOGEN, Cat. Code hkb-cd40) containing a NF-kB-driven secreted alkaline phosphatase reporter gene were seeded into the assay plate at a density of 20,000 cells per well. This plate was then incubated for 18 h at 37° C. and 5% CO2. Secreted alkaline phosphatase expression was measured using QUANTI-Blue™ (INVIVOGEN, Cat. Code rep-qb1) according to manufacturer's specifications and the assay plate was read on a PerkinElmer Envision at 620 nm.
Inhibition data for the test compound over a range of concentrations was plotted as percentage inhibition of the test compound (100%=maximum inhibition). IC50 values were determined after correcting for background [(sample read-mean of low control)/(mean of high control-mean of low control)] where by the low control is DMSO without stimulation and high control is DMSO with stimulation. The IC50 is defined as the concentration of test compound which produces 50% inhibition and was quantified using the 4 parameter logistic equation to fit the data.

[1] = read-out: TNF induced HEK-Blue assay IC50 value

Chain of TNFα (P01375 77-233 limits assumed): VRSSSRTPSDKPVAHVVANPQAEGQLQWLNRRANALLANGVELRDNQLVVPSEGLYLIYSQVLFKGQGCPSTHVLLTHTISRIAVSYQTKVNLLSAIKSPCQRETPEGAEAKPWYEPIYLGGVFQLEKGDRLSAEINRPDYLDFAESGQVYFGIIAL

Structure (SMILES) | IC50 [1] | IC50 (TNF induced HEK-Blue assay IC50 value)
C[C@@H](Nc1c(Cl)cnc2ccc(-c3cnc(C(C)(C)O)nc3)cc12)c1cc(-n2cnnc2)ccc1F [Example 371, (R)-2-(5-(3-chloro-4-((1-(2-fluoro-5-(4H-1,2,4-triazol-4-yl)phenyl)ethyl)amino)quinolin-6-yl)pyrimidin-2-yl)propan-2-ol] | < 1000 nM | –
Cc1nc2ccc(-c3cnc(C(C)(C)O)nc3)cc2c(N[C@@H](c2cc(C(N)CO)ccc2F)C(F)F)c1Cl (mixture of isomers) [Example 434, 2-(5-(4-(((1 S)-1-(5-(1-amino-2-hydroxyethyl)-2-fluorophenyl)-2,2-difluoroethyl)amino)-3-chloro-2-methylquinolin-6-yl)pyrimidin-2-yl)propan-2-ol] | < 1000 nM | –
CC(Nc1c(Cl)cnc2ccc(-c3cnc(C(C)(C)O)nc3)cc12)c1cc(Cl)ccn1 (racemic) [Example 62, 2-(5-(3-chloro-4-((1-(4-chloropyridin-2-yl)ethyl)amino)quinolin-6-yl)pyrimidin-2-yl)propan-2-ol] | 1000 to 10000 nM | –
Cc1nc2ccc(-c3cnc(C(C)(C)O)nc3)cc2c(N[C@H](C)c2cc(CO)ccc2F)c1Cl [Example 431, (R)-2-(5-(3-chloro-4-((1-(2-fluoro-5-(hydroxymethyl)phenyl)ethyl)amino)-2-methylquinolin-6-yl)pyrimidin-2-yl)propan-2-ol] | < 1000 nM | –
CCN1CCC[C@H]([C@H](C)Nc2c(Cl)cnc3ccc(-c4cnc(C(C)(C)O)nc4)cc23)C1 [Example 105, 2-(5-(3-chloro-4-(((S)-1-((S)-1-ethylpiperidin-3-yl)ethyl)amino)quinolin-6-yl)pyrimidin-2-yl)propan-2-ol] | < 1000 nM | –
Cc1nc2cc(F)c(-c3cnc(C(C)(C)O)nc3)nc2c(N[C@H](C)c2cccc(CO)c2)c1Cl [Example 578, (R)-2-(5-(7-chloro-3-fluoro-8-((1-(3-(hydroxymethyl)phenyl)ethyl)amino)-6-methyl-1,5-naphthyridin-2-yl)pyrimidin-2-yl) propan-2-ol] | < 1000 nM | –
C[C@@H](Nc1c(Cl)cnc2ccc(-c3cnc(C(C)(C)O)nc3)cc12)c1cc(Cl)ncc1F [Example 53, (R)-2-(5-(3-chloro-4-((1-(2-chloro-5-fluoropyridin-4-yl)ethyl)amino)quinolin-6-yl)pyrimidin-2-yl)propan-2-ol] | 1000 to 10000 nM | –
C[C@@H](Nc1c(Cl)cnc2ccc(-c3cnc(C(C)(C)O)nc3)cc12)c1cc(N2CCOCC2=O)ccc1F [Example 369, (R)-4-(3-(1-((3-chloro-6-(2-(2-hydroxypropan-2-yl)pyrimidin-5-yl)quinolin-4-yl)amino)ethyl)-4-fluorophenyl) morpholin-3-one] | < 1000 nM | –
C[C@@H](Nc1c(Cl)cnc2ccc(-c3cnc(C(C)(C)O)nc3)cc12)c1cc(-c2ncn[nH]2)ccc1F [Example 414, (R)-2-(5-(3-chloro-4-((1-(2-fluoro-5-(1H-1,2,4-triazol-5-yl)phenyl)ethyl)amino)quinolin-6-yl)pyrimidin-2-yl)propan-2-ol] | < 1000 nM | –
CCC(Nc1c(Cl)cnc2ccccc12)c1ccccc1F (stereo not shown) [Example 453, 3-chloro-N-(1-(2-fluorophenyl)propyl)quinolin-4-amine] | 1000 to 10000 nM | –
Cc1nc2cc(F)c(-c3cnc(C(C)(C)O)nc3)nc2c(N[C@@H](c2cc(C(O)CO)ccc2F)C(F)F)c1Cl (stereo partly drawn) [Example 491, 1-(3-((S)-1-((3-chloro-7-fluoro-6-(2-(2-hydroxypropan-2-yl)pyrimidin-5-yl)-2-methyl-1,5-naphthyridin-4-yl)amino)-2,2-difluoroethyl)-4-fluorophenyl)ethane-1,2-diol] | < 1000 nM | –
C[C@H](Nc1c(Cl)cnc2ccc(-c3cnc(C(C)(C)O)nc3)cc12)[C@H]1CCCN(c2cncnc2)C1 [Example 567, 2-(5-(3-chloro-4-(((S)-1-((S)-1-(pyrimidin-5-yl)piperidin-3-yl)ethyl)amino)quinolin-6-yl)pyrimidin-2-yl)propan-2-ol] | 1000 to 10000 nM | –
Cc1nc2ccc(-c3cnc(C(C)(C)O)nc3)cc2c(N[C@H](C)c2cc(Cc3ccccc3)ccc2F)c1Cl [Example 396, (R)-2-(5-(4-((1-(5-benzyl-2-fluorophenyl)ethyl)amino)-3-chloro-2-methylquinolin-6-yl)pyrimidin-2-yl)propan-2-ol] | < 1000 nM | –
C[C@@H](Nc1c(Cl)cnc2ccc(-c3cnc(NCC(N)=O)nc3)cc12)c1ccccc1F [Example 585, (R)-2-((5-(3-chloro-4-((1-(2-fluorophenyl)ethyl)amino)quinolin-6-yl)pyrimidin-2-yl)amino)acetamide] | 10000 to 25000 nM | –
Cc1ccc(C)c(Nc2c(Cl)c(CO)nc3ccc(-c4ccc(C#N)nc4)cc23)c1 [Example 40, 5-(3-chloro-4-((2,5-dimethylphenyl)amino)-2-(hydroxymethyl)quinolin-6-yl)picolinonitrile] | 1000 to 10000 nM | –
CC(Cc1cn(C)c(=O)c2ccccc12)Nc1c(Cl)cnc2ccc(-c3cnc(C(C)(C)O)nc3)cc12 (racemic) [Example 138, 4-(2-((3-chloro-6-(2-(2-hydroxypropan-2-yl)pyrimidin-5-yl)quinolin-4-yl)amino)propyl)-2-methylisoquinolin-1(2H)-one] | 10000 to 25000 nM | –
CC(Nc1c(Cl)cnc2ccc(-c3cnc(N4CCNC(=O)C4)nc3)cc12)c1nc(C(N)=O)ccc1F (single isomer, unassigned) [Example 25, 6-(1-((3-chloro-6-(2-(3-oxopiperazin-1-yl)pyrimidin-5-yl)quinolin-4-yl)amino)ethyl)-5-fluoropicolinamide] | 1000 to 10000 nM | –
CC(C)(O)c1ncc(-c2ccc3ncc(Cl)c(NN4CCc5ccccc54)c3c2)cn1 [Example 47, 2-(5-(3-chloro-4-(indolin-1-ylamino)quinolin-6-yl)pyrimidin-2-yl)propan-2-ol] | < 1000 nM | –
C[C@@H](Nc1c(Cl)cnc2cc(F)c(-c3cnc(C(C)(C)O)nc3)nc12)c1cc(C(O)CO)ccc1F (stereo partly drawn) [Example 504, 1-(3-((R)-1-((3-chloro-7-fluoro-6-(2-(2-hydroxypropan-2-yl)pyrimidin-5-yl)-1,5-naphthyridin-4-yl)amino)ethyl)-4-fluorophenyl)ethane-1,2-diol] | < 1000 nM | –

Results, then the molecule that gave them:

IC50 [1] | IC50 (TNF induced HEK-Blue assay IC50 value) | Structure (SMILES)
< 1000 nM | – | C=Cc1cccc(C(Nc2c(Cl)cnc3cc(F)c(-c4cnc(C(C)(C)O)nc4)nc23)C(F)F)c1 (racemic) [Example 216, 2-(5-(7-chloro-8-((2,2-difluoro-1-(3-vinylphenyl)ethyl)amino)-3-fluoro-1,5-naphthyridin-2-yl)pyrimidin-2-yl) propan-2-ol]
– | < 1000 nM | CC(=O)N1CCC[C@H]([C@H](C)Nc2c(Cl)cnc3ccc(-c4cnc(C(C)(C)O)nc4)cc23)C1 [Example 107, 1-((S)-3-((S)-1-((3-chloro-6-(2-(2-hydroxypropan-2-yl)pyrimidin-5-yl)quinolin-4-yl)amino)ethyl)piperidin-1-yl)ethanone]
< 1000 nM | – | CC(C)(O)c1ncc(-c2nc3c(N[C@@H](c4cc(C(O)CO)ccc4F)C(F)F)c(Cl)cnc3cc2F)cn1 (stereo partly drawn) [Example 492, 1-(3-((S)-1-((3-chloro-7-fluoro-6-(2-(2-hydroxypropan-2-yl)pyrimidin-5-yl)-1,5-naphthyridin-4-yl)amino)-2,2-difluoroethyl)-4-fluorophenyl)ethane-1,2-diol]
10000 to 25000 nM | – | CC(Nc1c(Cl)cnc2ncc(-c3ccc(C(C)(C)O)cc3)cc12)c1ccccc1F (racemic) [Example 231, 2-(4-(6-chloro-5-((1-(2-fluorophenyl)ethyl)amino)-1,8-naphthyridin-3-yl)phenyl)propan-2-ol]
10000 to 25000 nM | – | CC(Nc1c(Cl)cnc2ccc(-c3ccc(C(C)(C)O)cc3)cc12)c1ccon1 (racemic) [Example 174, 2-(4-(3-chloro-4-((1-(isoxazol-3-yl)ethyl)amino)quinolin-6-yl)phenyl)propan-2-ol]
1000 to 10000 nM | – | C[C@@H](Nc1c(Cl)c(C(=O)Nc2cccnc2)nc2ccc(-c3cnc(C(C)(C)O)nc3)cc12)c1cc(C(N)=O)ccc1F [Example 395, (R)-4-((1-(5-carbamoyl-2-fluorophenyl)ethyl)amino)-3-chloro-6-(2-(2-hydroxypropan-2-yl)pyrimidin-5-yl)-N-(pyridin-3-yl)quinoline-2-carboxamide]
< 1000 nM | – | CC(C)(O)c1ccc(-c2cc3c(N[C@@H](c4ccccc4F)C(F)F)c(Cl)cnc3cc2F)cn1 [Example 270, (S)-2-(5-(3-chloro-4-((2,2-difluoro-1-(2-fluorophenyl)ethyl)amino)-7-fluoroquinolin-6-yl)pyridin-2-yl)propan-2-ol]
< 1000 nM | – | C[C@@H](Nc1c(Cl)cnc2ccc(-c3ccc(N4CCO[C@@H](CO)C4)nc3)cc12)c1ccccc1F [Example 83, ((R)-4-(5-(3-chloro-4-(((R)-1-(2-fluorophenyl)ethyl)amino)quinolin-6-yl)pyridin-2-yl)morpholin-2-yl)methanol]
< 1000 nM | – | Cc1ccc(F)c(C(C)Nc2c(Cl)cnc3ccc(-c4cnc(N5CCNC(=O)C5)nc4)cc23)n1 (stereo not shown) [Example 484, 4-(5-(3-chloro-4-((1-(3-fluoro-6-methylpyridin-2-yl)ethyl)amino)quinolin-6-yl)pyrimidin-2-yl)piperazin-2-one]
